Legend:
CCRF-CEM = assay: Inhibition the growth of CCRF-CEM human leukemic lymphoblasts in culture during 72 hr of continuous drug exposure; assay type: functional, cell-based
Dihydrofolate reductase = molecular target: T1, Dihydrofolate reductase (Homo sapiens, UniProt P00374); assay: Inhibitory activity against human recombinant Dihydrofolate reductase
T1 sequence (P00374 whole entry): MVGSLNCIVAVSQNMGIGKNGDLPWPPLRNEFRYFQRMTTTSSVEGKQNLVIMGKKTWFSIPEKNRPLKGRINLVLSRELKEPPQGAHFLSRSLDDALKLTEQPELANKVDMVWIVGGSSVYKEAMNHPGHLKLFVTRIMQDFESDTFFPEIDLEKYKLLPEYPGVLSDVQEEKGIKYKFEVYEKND

| Compound | IC50 (CCRF-CEM) | Ki (Dihydrofolate reductase) |
| --- | --- | --- |
| CCC(Cc1cnc2nc(N)nc(N)c2n1)c1ccc(C(=O)NC(CCCNC(=O)c2ccccc2C(=O)O)C(=O)O)cc1 (centres undefined) | 1.2 nM | 0.00062 nM |
| Nc1nc(N)c2cc(CNc3ccc(C(=O)NC(CCCNC(=O)c4ccccc4C(=O)O)C(=O)O)cc3)ccc2n1 (centres undefined) | 0.64 nM | – |
| Nc1cc(N)c2cc(CCc3ccc(C(=O)NC(CCCNC(=O)c4ccccc4C(=O)O)C(=O)O)cc3)ccc2c1 (centres undefined) | 0.69 nM | 0.00021 nM |
| Nc1cc(N)c2nc(CCc3ccc(C(=O)NC(CCCNC(=O)c4ccccc4C(=O)O)C(=O)O)cc3)cnc2c1 (centres undefined) | 0.53 nM | 0.00035 nM |
| C#CCC(Cc1cnc2nc(N)nc(N)c2n1)c1ccc(C(=O)NC(CCCNC(=O)c2ccccc2C(=O)O)C(=O)O)cc1 (centres undefined) | 1.3 nM | 0.0006 nM |
